Two compounds from ChEMBL document CHEMBL4118098, “Discovery of DS28120313 as a potent orally active hepcidin production inhibitor: Design and optimization of novel 4,6-disubstituted indazole derivatives” (Bioorg Med Chem Lett, 2017) can be followed below.

Assay [1] deals with Dual specificity protein kinase CLK2 (Homo sapiens) (UniProt P49760). Kind of assay: Inhibition of CLK2 (unknown origin) at 0.164 uM relative to control.
Assay [2] concerns the target Casein kinase I isoform gamma-2 (Homo sapiens) (UniProt P78368). Kind of assay: Inhibition of CK1-gamma2 (unknown origin) at 0.164 uM relative to control.
Assay [3] deals with Aurora kinase A (Homo sapiens) (UniProt O14965). Kind of assay: Inhibition of AurA (unknown origin) at 0.19 uM relative to control.
Sequence of Aurora kinase A (Homo sapiens) (O14965 whole entry): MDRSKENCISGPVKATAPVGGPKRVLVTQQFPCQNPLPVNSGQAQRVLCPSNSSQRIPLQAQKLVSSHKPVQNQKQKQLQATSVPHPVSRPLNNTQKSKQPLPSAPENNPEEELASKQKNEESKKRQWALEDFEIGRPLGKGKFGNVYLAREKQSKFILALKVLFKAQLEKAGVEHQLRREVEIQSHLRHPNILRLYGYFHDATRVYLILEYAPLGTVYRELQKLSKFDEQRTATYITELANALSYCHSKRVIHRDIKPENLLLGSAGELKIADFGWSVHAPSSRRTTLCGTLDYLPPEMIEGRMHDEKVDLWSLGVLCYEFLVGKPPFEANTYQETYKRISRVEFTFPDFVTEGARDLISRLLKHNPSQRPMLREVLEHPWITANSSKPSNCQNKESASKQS

Sequence of Dual specificity protein kinase CLK2 (Homo sapiens) (P49760 whole entry, looked up, canonical isoform): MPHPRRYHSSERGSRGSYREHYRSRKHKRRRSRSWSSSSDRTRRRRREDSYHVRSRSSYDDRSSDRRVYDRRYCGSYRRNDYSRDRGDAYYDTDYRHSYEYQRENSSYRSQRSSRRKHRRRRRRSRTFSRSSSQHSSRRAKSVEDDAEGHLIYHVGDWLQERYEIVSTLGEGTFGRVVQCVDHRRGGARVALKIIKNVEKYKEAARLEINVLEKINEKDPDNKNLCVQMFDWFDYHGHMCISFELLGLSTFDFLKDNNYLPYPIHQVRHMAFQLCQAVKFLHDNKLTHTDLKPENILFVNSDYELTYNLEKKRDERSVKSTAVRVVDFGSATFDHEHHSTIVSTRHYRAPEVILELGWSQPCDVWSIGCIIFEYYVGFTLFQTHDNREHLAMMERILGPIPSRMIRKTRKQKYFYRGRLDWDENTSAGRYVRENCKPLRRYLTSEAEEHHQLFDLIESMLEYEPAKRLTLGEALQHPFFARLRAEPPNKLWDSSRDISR
Sequence of Casein kinase I isoform gamma-2 (Homo sapiens) (P78368 whole entry, looked up, canonical isoform): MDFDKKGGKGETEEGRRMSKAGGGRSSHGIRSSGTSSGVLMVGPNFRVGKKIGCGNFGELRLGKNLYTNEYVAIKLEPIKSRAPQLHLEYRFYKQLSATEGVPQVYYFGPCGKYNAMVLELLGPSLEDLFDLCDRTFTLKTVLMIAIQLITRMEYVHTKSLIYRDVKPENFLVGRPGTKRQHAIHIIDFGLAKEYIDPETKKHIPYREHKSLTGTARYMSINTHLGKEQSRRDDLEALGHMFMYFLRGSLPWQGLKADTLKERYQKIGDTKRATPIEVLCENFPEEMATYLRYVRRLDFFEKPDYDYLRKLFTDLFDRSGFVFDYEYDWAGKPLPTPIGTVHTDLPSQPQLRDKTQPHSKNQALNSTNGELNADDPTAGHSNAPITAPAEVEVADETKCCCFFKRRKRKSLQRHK

`COC(=O)Nc1cc(-c2c(C3CC3)n[nH]c2C)cc2[nH]ncc12`: the figures for the inhibition in assay [1] and in assay [2] were 0.7% and 2.3%, respectively. For the compound `Cc1[nH]nc(C2CC2)c1-c1ccc2c(-c3ccc(N4CCN(C)CC4)nc3)n[nH]c2c1`, in assay [3], the inhibition (as a rule, the relative decrease from the control value, in per cent) amounted to 3.3%.
